Key:
[1] = Peroxide neutralization rate profile in Clear Care® lens case with platinum element; format: physicochemical
Text: All of the peroxide neutralization data described herein was obtained with a hydrogen peroxide lens case provided in a contact lens care product package sold as Clear Care® by CibaVision. The Clear Care® product packages with the included lens case were purchased in the United States in 2009-10. Each of the hydrogen peroxide neutralization profiles and rate constants (as well as calculated the half-lives) stated herein and in the claims were obtained with a Clear Care® lens case.
The line plots shown in FIG. 5B is determined from the peroxide neutralization data of FIG. 5A over the initial 60 minutes, i.e. at time of 0, 5 min, 15 min, 30 min and 60 min. […] The pseudo first-order rate constant is determined from the slope of the line plots.
The peroxide neutralization rate profiles of select disinfecting solutions were determined as follows. […] Aliquots of the solution are removed at the stated time points and the concentration of hydrogen peroxide is determined by known analytical methods.
The aliquots of solution are titrated with 0.1N potassium permanganate in the presence of an acidic aqueous solution. […] The sample is placed in the system and analyzed using a built-in hydrogen peroxide determination method. […] Once an endpoint is determined the instrument calculates the hydrogen peroxide concentration of the sample. […]

[2] = Osmolality after peroxide neutralization; format: physicochemical; settings: disinfecting solution with 3 wt. % urea hydrogen peroxide

Row | Compound | effect on the rate of peroxide neutralization ([1]; 0.1 wt. % or 1000 ppm) | effect on the rate of peroxide neutralization ([1]; 100 ppm) | osmolality of the solution following neutralization of the peroxide [2]
1 | NCCS(=O)(=O)O [taurine] | much greater reduction in the rate of peroxide neutralization | very small effect on the rate of peroxide neutralization | 
2 | NC(N)=O.OO [urea hydrogen peroxide] |  |  | about 600 mOsmol/kg

— patent US8932646B2, “Peroxide contact lens care solution” (Bausch & Lomb Incorporated, priority 2010, dated 2015)
